The text below walks through data of patent US6265423A, “Aromatic polycyclic retinoid-type derivatives, method for preparing same, and use thereof for making pharmaceutical and cosmetic compositions” (priority 1996, dated 2001).

The subject of assay [1] is ZR-75-1 human mammary cancer cells. Kind of assay: MTT test, proliferation of ZR-75-1. The class given is cell-based. The note with it: for activity at 100 µM / activity at 1 µM / activity at 0.01 µM: Homo sapiens, 72 h, control = 100%, read-out: level of proliferation; for activity at 100 µM: ZR-75-1, 10^-4 M; for activity at 1 µM: ZR-75-1, 10^-6 M; for activity at 0.01 µM: ZR-75-1, 10^-8 M; for effect on cellular increase, ZR-75-1 (in words): MTT test. As to the method: (§1) The cells that were cultured came from the ATCC (American Type Culture Collection).
(§2) The cellular lines are kept in culture in a monolayer at 37° C. in closed culture dishes (Nunc. Gibco BRL, Life Technologies, Belgium) containing the minimum essential medium (MEM, Gibco) supplemented with 5% of Foetal Calf Serum, (FCS, Gibco), 0.6 mg/ml of glutamine (Gibco) and a mixture of 200 IU/mi of penicillin (Gibco), 200 μg/ml of streptomycin (Gibco) and 0.1 mg/ml of gentamycin (Gibco). The foetal calf serum is decomplemented for 1 hour at 56° C.
(§3) This test is based on the mitochondrial reduction by living metabolically active cells of the MTT (3-(4,5-dimethylthiazol-2-yl)-2,5-diphenyltetrazolium bromide) of yellowish colour into a blue coloured product, formazan. The quantity of formazan obtained is directly proportional to the number of living cells. After incubation of the cells for 24 hours in microplates with 96 flat bottomed wells, the culture medium is replaced by 100 μl of fresh culture medium containing the drug to be tested.
(§4) The microplates are then incubated for 3 hours at 37° C. and centrifuged for 10 minutes at 400 g (GPR centrifuge, Beckman). The MTT solution is replaced by 100 μl of dimethylsulphoxide (Merck). The microplates are agitated (Vari-Shaker, Dynatech) for 10 minutes.
(§5) In the microplates, the control cells like the treated cells were incubated in a medium without the compounds to be tested for 24 hours. The control cells are incubated in a medium without a drug throughout the whole experiment, while the treated cells are incubated in different media. These media contain the molecule to be tested at various concentrations: 10^-8 M, 10^-6 M and 10^-4 M. All the tests are carried out in 6 duplicates.
(§6) The statistical comparisons are carried out according to the Fisher Test:
(§7) The mean optical density measured for each experimental condition is expressed as a percentage in relation to the laid down control condition being equal to 100%.

Assay [2] has as its system T-47D human mammary cancer cells. Kind of assay: MTT test, proliferation of T-47D. The class given is cell-based. The note with it: for activity at 100 µM / activity at 1 µM / activity at 0.01 µM: Homo sapiens, T47D, T-47D, 72 h, control = 100%, read-out: level of proliferation; for activity at 100 µM: 10^-4 M; for activity at 1 µM: 10^-6 M; for activity at 0.01 µM: 10^-8 M; for effect on cellular increase, T-47D (in words): MTT test. The method, then:
as §1, §2, §3, §4, §5, §6, §7
In general terms: Tetrazolium assays rely on reduction of a dye to a coloured formazan, in cell work by metabolically active cells.

Assay [3] relates to A549 human pulmonary cancer cells. Kind of assay: MTT test, proliferation of A549. The assay is classed as cell-based. The note with it: Homo sapiens, 72 h, control = 100%, read-out: level of proliferation; for activity at 100 µM: A549, 10^-4 M; for activity at 1 µM: A549, 10^-6 M; for activity at 0.01 µM: A549, 10^-8 M.
For assay [4], the system named is A-427 human pulmonary cancer cells. Briefly: MTT test, proliferation of A-427. The note with it: for activity at 0.01 µM / activity at 1 µM / activity at 100 µM: Homo sapiens, A-427, 72 h, read-out: level of proliferation; for effect on cellular increase, A-427 (in words): MTT test.

Take `C/C(=C\c1ccc2c(c1)C(C)(C)CCS2)c1ccc(C(=O)O)cc1` [CB12994]: the activity at 100 µM in assay [1] is 31.8%; in assay [2], 1.8%; in assay [3], 53.2%; in assay [4], 4.4%. The activity at 1 µM in assay [1] was 126%; in assay [2] it was 51.8%; in assay [3], 89%; in assay [4], 93.6%. For the same compound, the activity at 0.01 µM turned out to be 121% in assay [1], 67.6% in assay [2], 92.1% in assay [3] and 107% in assay [4].

For the compound `C/C(=C\c1ccc2c(c1)C(C)(C)CCS2(=O)=O)c1ccc(-c2nnn[nH]2)cc1` [CB15068, (E) 5-[4-[1-(3',4'-dihydro-4'4'-dimethyl-1',1'-dioxide-2'H-1'-benzothiopyran-6'-yl)-2-propenyl]phenyl]-1H-tetrazole], in assay [1], the activity at 100 µM came out at 59.3%; the activity at 1 µM came out at 99.9%; the activity at 0.01 µM turned out to be 99.2%; the “effect on cellular increase, ZR-75-1 (in words)” value was “do not influence the cellular increase of the lineages under consideration”. Also, in assay [2], the activity at 100 µM came out at 32.2%; the activity at 1 µM is 87.8%; the activity at 0.01 µM was 101%; the “effect on cellular increase, T-47D (in words)” value is reported as “do not influence the cellular increase of the lineages under consideration”. Moreover, in assay [3], the activity at 100 µM stood at 81.8%, the activity at 1 µM stood at 97.3% and the activity at 0.01 µM was found to be 92.7%. In addition, in assay [4], the activity at 0.01 µM is 88.5%, the activity at 1 µM was found to be 98% and the activity at 100 µM amounted to 24.3%.

On to `C/C(=C/c1cc2c(cc1C)C(C)(C)CCC2(C)C)c1ccc(C(=O)O)cc1` [CB32706], for which the activity at 100 µM was 0.7% in assay [1], 0% in assay [2], 6% in assay [3] and 0.8% in assay [4]. The activity at 1 µM in assay [1] is 93.1%; in assay [2] it was 88.6%; in assay [3], 103%; in assay [4], 99.6%. Besides, the activity at 0.01 µM in assay [1] turned out to be 95%; in assay [2], 94%; in assay [3] it was 101%; in assay [4], 103%.

In the case of `C/C(=C/c1ccc2c(c1)C(C)(C)CCS2(=O)=O)c1ccc(-c2nnn[nH]2)cc1` [CB39122, (Z) 5-[4-[1-(3',4'-dihydro-4',4'-dimethyl-1',1'-dioxide-2'H-1'-benzothiopyran-6'-yl)-2-propenyl]phenyl]-1H-tetrazole], the activity at 100 µM in assay [1] was 74.2%; in assay [2] it was 57.1%; in assay [3], 84.8%; in assay [4] it was 27.1%. The activity at 1 µM was determined as 97.3% in assay [1], 100% in assay [2], 98% in assay [3] and 96.5% in assay [4]. For the same compound, the activity at 0.01 µM in assay [1] worked out at 102%; in assay [2], 102%; in assay [3] it was 96.2%; in assay [4], 93.9%.

With `C/C(=C\c1ccc2c(c1)C(C)(C)CCS2(=O)=O)c1ccc(C(=O)O)cc1` [CB39356], in assay [1], the activity at 100 µM worked out at 59.6%; the activity at 1 µM was 148%; the activity at 0.01 µM was determined as 133%; the “effect on cellular increase, ZR-75-1 (in words)” value is “do not influence the cellular increase of the lineages under consideration”. Besides, in assay [2], the activity at 100 µM amounted to 36.4%; the activity at 1 µM turned out to be 108%; the activity at 0.01 µM worked out at 86%; the “effect on cellular increase, T-47D (in words)” value is listed as “do not influence the cellular increase of the lineages under consideration”. In assay [3], the activity at 100 µM was found to be 72%, the activity at 1 µM was found to be 105% and the activity at 0.01 µM was determined as 105%. Moreover, in assay [4], the activity at 0.01 µM was determined as 124%; the activity at 1 µM is 129%; the activity at 100 µM was 70.7%; the “effect on cellular increase, A-427 (in words)” value is “a stimulation of the cellular increase”.

As for `C/C(=C\c1cc2c(cc1C)C(C)(C)CCC2(C)C)c1ccc(-c2nnn[nH]2)cc1` [CB40747, (E) 5-[4-[1-(5,6,7,8-tetrahydro-3,5,5,8,8-pentamethyl-2-naphthalenyl)-2-propenyl]phenyl]-1H-tetrazole], the activity at 100 µM stood at 0% in assay [1], 0% in assay [2], 0% in assay [3] and 1.7% in assay [4]. Moreover, the activity at 1 µM in assay [1] turned out to be 107%; in assay [2], 85.2%; in assay [3] it was 192%; in assay [4], 83.7%. For the same compound, the activity at 0.01 µM in assay [1] is 111%; in assay [2], 106%; in assay [3] it was 176%; in assay [4] it was 100%. Besides, the “effect on cellular increase, A-427 (in words)” value in assay [4] was “a stimulation of the cellular increase”.

Turning to `C/C(=C/c1ccc2c(c1)C(C)(C)CCS2)c1ccc(C(=O)O)cc1` [CB41666], the activity at 100 µM in assay [1] came out at 48.5%; in assay [2], 28%; in assay [3], 63.2%; in assay [4], 7.6%. Also, the activity at 1 µM came to 115% in assay [1], 69.5% in assay [2], 89.9% in assay [3] and 91.2% in assay [4]. The activity at 0.01 µM in assay [1] was determined as 112%; in assay [2] it was 88.7%; in assay [3], 94.5%; in assay [4] it was 83%.

`Cc1cc2c(cc1/C=C(\c1ccc(C(=O)O)cc1)C(F)(F)F)C(C)(C)CCC2(C)C` [CB62899, (E) 4-[1-trifluoromethyl-2-(5,6,7,8-tetrahydro-3,5,5,8,8-pentamethyl-2-naphthalenyl)-1-ethenyl]benzoic acid]: the activity at 100 µM stood at 0.4% in assay [1], 1.7% in assay [2], 0.45% in assay [3] and 0% in assay [4]. In addition, the activity at 1 µM turned out to be 112% in assay [1], 73.7% in assay [2], 119% in assay [3] and 124% in assay [4]. For the same compound, the activity at 0.01 µM was determined as 112% in assay [1], 128% in assay [2], 131% in assay [3] and 115% in assay [4].

Regarding `C=C(c1ccc(C(=O)Nc2ccc(O)cc2)cc1)c1cc2c(cc1C)C(C)(C)CCC2(C)C` [CB65801], in assay [1], the activity at 100 µM was determined as 0.2%, the activity at 1 µM is 93.4% and the activity at 0.01 µM was 138%. Also, in assay [2], the activity at 100 µM amounted to 1.6%, the activity at 1 µM was determined as 62.7% and the activity at 0.01 µM came out at 92.8%.

For `Cc1cc2c(cc1C(=O)c1ccc(C(=O)Nc3ccc(O)cc3)cc1)C(C)(C)CCC2(C)C` [CB81616], in assay [1], the activity at 100 µM was found to be 0%, the activity at 1 µM was found to be 134% and the activity at 0.01 µM was determined as 136%. For the same compound, in assay [2], the activity at 100 µM came to 1.4%, the activity at 1 µM was 96.7% and the activity at 0.01 µM was 103%.
